In ChEMBL document CHEMBL5614372, “Advances in dual-targeting inhibitors of HDAC6 for cancer treatment” (Eur J Med Chem, 2024):

Key:
Histone deacetylase 3 [1] = target: T1, Histone deacetylase 3 (Homo sapiens, UniProt O15379); experiment: Inhibition of HDAC3 (unknown origin)
[2] = target: T2, Protein deacetylase HDAC6 (Homo sapiens, UniProt Q9UBN7); experiment: Inhibition of HDAC6 (unknown origin) extracted from baculovirus infected Sf9 insect cells using fluorescent peptide p53 (379 to 382 residues) RHKK(Ac)AMC as substrate by fluorescence based analysis
T2 sequence (Q9UBN7 whole entry): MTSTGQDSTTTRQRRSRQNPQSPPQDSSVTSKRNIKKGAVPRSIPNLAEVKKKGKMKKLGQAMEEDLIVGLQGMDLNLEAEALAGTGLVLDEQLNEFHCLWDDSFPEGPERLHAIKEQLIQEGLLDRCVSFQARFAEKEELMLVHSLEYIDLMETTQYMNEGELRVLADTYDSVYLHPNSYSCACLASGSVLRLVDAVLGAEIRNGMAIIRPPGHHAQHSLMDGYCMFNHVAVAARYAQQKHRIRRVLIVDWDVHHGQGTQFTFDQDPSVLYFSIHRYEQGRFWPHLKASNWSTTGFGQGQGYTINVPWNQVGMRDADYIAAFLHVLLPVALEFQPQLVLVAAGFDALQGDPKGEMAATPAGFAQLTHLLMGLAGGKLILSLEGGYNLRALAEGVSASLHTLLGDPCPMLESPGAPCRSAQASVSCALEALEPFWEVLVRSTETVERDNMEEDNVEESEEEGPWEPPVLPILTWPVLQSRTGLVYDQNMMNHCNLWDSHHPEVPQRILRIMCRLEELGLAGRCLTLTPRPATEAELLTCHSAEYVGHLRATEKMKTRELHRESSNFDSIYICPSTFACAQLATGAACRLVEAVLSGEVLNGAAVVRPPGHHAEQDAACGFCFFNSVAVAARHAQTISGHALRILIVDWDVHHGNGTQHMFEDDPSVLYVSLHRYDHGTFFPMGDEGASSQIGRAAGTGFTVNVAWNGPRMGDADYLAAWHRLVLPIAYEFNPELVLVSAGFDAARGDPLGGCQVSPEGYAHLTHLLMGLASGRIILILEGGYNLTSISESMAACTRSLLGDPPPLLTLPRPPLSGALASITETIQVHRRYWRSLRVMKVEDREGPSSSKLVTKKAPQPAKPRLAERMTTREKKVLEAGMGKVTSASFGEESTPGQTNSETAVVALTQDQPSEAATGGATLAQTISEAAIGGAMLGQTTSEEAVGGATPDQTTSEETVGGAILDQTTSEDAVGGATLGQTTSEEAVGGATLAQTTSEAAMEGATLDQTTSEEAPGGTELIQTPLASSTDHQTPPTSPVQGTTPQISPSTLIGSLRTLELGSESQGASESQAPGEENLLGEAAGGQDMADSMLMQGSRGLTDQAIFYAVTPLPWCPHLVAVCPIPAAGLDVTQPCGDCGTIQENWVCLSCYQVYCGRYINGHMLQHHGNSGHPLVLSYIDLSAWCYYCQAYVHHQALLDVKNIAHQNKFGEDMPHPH

[3] = target: ALK tyrosine kinase receptor (Homo sapiens, UniProt Q9UM73); experiment: Inhibition of ALK (unknown origin) using poly[Glu:Tyr] (4:1) as substrate incubated for 2 hrs by [gamma-33P]ATP assay
A549 = experiment: Antitumor activity against human A549 cells xenografted in BALB/c nude mouse assessed as inhibition of tumor growth at 20 mg/kg, ip administered once daily for 21 days relative to control; assay type: functional; design: scale not given: the % may be the effect or the level left; settings: time 21 day
Histone deacetylase 1 = Histone deacetylase 1 (Homo sapiens, UniProt Q13547); experiment: Inhibition of HDAC1 (unknown origin)
Histone deacetylase 4 [4] = target: T3, Histone deacetylase 4 (Homo sapiens, UniProt P56524); experiment: Inhibition of HDAC4 (unknown origin)
Histone deacetylase 8 = target: T4, Histone deacetylase 8 (Homo sapiens, UniProt Q9BY41); experiment: Inhibition of HDAC8 (unknown origin)
T4 sequence (Q9BY41 whole entry): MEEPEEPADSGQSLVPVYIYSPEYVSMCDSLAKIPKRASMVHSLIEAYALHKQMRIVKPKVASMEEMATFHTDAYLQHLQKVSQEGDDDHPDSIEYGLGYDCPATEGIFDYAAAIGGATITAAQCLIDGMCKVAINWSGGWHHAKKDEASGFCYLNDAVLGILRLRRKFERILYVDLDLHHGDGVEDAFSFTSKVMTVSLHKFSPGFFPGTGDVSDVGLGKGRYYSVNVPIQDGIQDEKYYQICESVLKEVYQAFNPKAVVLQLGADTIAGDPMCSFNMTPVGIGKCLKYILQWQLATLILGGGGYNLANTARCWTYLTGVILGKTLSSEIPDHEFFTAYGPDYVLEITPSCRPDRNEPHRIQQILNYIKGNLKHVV

Histone deacetylase 11 = Histone deacetylase 11 (Homo sapiens, UniProt Q96DB2); experiment: Inhibition of HDAC11 (unknown origin)
[5] = target: Phosphatidylinositol 4,5-bisphosphate 3-kinase catalytic subunit beta isoform (Homo sapiens, UniProt P42338); experiment: Inhibition of PI3Kbeta (unknown origin)
[6] = target: Phosphatidylinositol 4,5-bisphosphate 3-kinase catalytic subunit delta isoform (Homo sapiens, UniProt O00329); experiment: Inhibition of PI3Kdelta (unknown origin)
[7] = target: Phosphatidylinositol 4,5-bisphosphate 3-kinase catalytic subunit gamma isoform (Homo sapiens, UniProt P48736); experiment: Inhibition of PI3Kgamma (unknown origin)
[8] = target: T2, Protein deacetylase HDAC6; experiment: Inhibition of HDAC6 (unknown origin)
[9] = target: Steroid 17-alpha-hydroxylase/17,20 lyase (Homo sapiens, UniProt P05093); experiment: Inhibition of CYP17A1 (unknown origin); assay type: ADME
[10] = target: High affinity cGMP-specific 3',5'-cyclic phosphodiesterase 9A (Homo sapiens, UniProt O76083); experiment: Inhibition of PDE9A (unknown origin)
[11] = Inhibition of HSP90 (unknown origin) by fluorescence polarization assay; design: species or system Homo sapiens
Histone deacetylase 2 = Histone deacetylase 2 (Homo sapiens, UniProt Q92769); experiment: Inhibition of HDAC2 (unknown origin)
Histone deacetylase 5 [12] = target: T5, Histone deacetylase 5 (Homo sapiens, UniProt Q9UQL6); experiment: Inhibition of HDAC5 (unknown origin)
Histone deacetylase 7 [13] = target: T6, Histone deacetylase 7 (Homo sapiens, UniProt Q8WUI4); experiment: Inhibition of HDAC7 (unknown origin)
Histone deacetylase 9 = Histone deacetylase 9 (Homo sapiens, UniProt Q9UKV0); experiment: Inhibition of HDAC9 (unknown origin)
[14] = target: Glutamate [NMDA] receptor; experiment: Binding affinity to NMDA receptor (unknown origin) assessed as inhibition constant; assay type: protein-complex assay, Homo sapiens
[15] = target: Glutamate [NMDA] receptor (Homo sapiens) (UniProt Q05586+Q12879+Q13224+O15399+O60391+Q14957+Q8TCU5); experiment: Inhibition of NMDA receptor (unknown origin) at 10 uM relative to control; assay type: protein-complex assay
[16] = target: Serine/threonine-protein kinase PAK 1 (Homo sapiens, UniProt Q13153); experiment: Inhibition of PAK1 (unknown origin)
[17] = target: Serine/threonine-protein kinase PAK 2 (Homo sapiens, UniProt Q13177); experiment: Inhibition of PAK2 (unknown origin)
[18] = target: Serine/threonine-protein kinase PAK 3 (Homo sapiens, UniProt O75914); experiment: Inhibition of PAK3 (unknown origin)
[19] = target: cGMP-specific 3',5'-cyclic phosphodiesterase (Homo sapiens, UniProt O76074); experiment: Inhibition of PDE5A (unknown origin)
[20] = target: Estrogen receptor (Homo sapiens) (UniProt P03372); experiment: Binding affinity to ERalpha (unknown origin) assessed as relative binding affinity by fluorescence polarization assay relative to control
[21] = target: Estrogen receptor beta (Homo sapiens) (UniProt Q92731); experiment: Binding affinity to ERbeta (unknown origin) assessed as relative binding affinity by fluorescence polarization assay relative to control
[22] = target: Serine/threonine-protein kinase B-raf (Homo sapiens, UniProt P15056); experiment: Inhibition of wild type B-RAF (unknown origin)
Histone deacetylase 3 [23] = target: T1, Histone deacetylase 3; experiment: Inhibition of human recombinant HDAC3 using fluorogenic HDAC substrate incubated for 20 mins by fluorescence based assay
Histone deacetylase 4 [24] = target: T3, Histone deacetylase 4; experiment: Inhibition of human recombinant HDAC4 using fluorogenic HDAC substrate incubated for 20 mins by fluorescence based assay
Histone deacetylase 5 [25] = target: T5, Histone deacetylase 5; experiment: Inhibition of human recombinant HDAC5 using fluorogenic HDAC substrate incubated for 20 mins by fluorescence based assay
[26] = target: T2, Protein deacetylase HDAC6; experiment: Inhibition of human recombinant HDAC6 using fluorogenic HDAC substrate incubated for 20 mins by fluorescence based assay
Histone deacetylase 7 [27] = target: T6, Histone deacetylase 7; experiment: Inhibition of human recombinant HDAC7 using fluorogenic HDAC substrate incubated for 20 mins by fluorescence based assay

Histone deacetylase 1, sequence (Q13547 whole entry): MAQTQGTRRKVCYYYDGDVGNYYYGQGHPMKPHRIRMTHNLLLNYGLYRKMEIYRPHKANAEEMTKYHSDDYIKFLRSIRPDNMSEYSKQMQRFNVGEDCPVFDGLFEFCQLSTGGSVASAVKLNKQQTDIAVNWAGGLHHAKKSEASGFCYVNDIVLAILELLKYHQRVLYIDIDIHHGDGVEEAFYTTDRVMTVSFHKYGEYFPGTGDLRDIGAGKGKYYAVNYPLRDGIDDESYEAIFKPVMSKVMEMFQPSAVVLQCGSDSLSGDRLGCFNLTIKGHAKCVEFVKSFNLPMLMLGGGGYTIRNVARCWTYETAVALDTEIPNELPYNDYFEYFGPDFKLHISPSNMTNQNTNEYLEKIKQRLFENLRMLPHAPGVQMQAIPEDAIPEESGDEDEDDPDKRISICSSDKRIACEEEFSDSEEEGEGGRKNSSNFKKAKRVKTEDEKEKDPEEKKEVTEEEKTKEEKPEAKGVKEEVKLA
Histone deacetylase 2, sequence (Q92769 whole entry): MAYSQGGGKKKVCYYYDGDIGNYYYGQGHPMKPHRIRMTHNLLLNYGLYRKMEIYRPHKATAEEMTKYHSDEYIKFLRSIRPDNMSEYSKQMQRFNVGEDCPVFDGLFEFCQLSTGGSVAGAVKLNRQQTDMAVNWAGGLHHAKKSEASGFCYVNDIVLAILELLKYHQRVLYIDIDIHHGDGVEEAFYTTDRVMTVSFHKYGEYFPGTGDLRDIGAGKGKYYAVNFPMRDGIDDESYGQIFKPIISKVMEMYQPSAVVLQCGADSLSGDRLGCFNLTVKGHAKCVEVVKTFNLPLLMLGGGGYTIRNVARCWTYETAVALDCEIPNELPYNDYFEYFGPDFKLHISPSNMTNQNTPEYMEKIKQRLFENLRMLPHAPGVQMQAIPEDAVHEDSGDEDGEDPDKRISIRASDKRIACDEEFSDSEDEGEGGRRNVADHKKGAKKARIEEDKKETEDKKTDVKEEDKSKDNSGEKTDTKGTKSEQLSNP
T3 sequence (P56524 whole entry): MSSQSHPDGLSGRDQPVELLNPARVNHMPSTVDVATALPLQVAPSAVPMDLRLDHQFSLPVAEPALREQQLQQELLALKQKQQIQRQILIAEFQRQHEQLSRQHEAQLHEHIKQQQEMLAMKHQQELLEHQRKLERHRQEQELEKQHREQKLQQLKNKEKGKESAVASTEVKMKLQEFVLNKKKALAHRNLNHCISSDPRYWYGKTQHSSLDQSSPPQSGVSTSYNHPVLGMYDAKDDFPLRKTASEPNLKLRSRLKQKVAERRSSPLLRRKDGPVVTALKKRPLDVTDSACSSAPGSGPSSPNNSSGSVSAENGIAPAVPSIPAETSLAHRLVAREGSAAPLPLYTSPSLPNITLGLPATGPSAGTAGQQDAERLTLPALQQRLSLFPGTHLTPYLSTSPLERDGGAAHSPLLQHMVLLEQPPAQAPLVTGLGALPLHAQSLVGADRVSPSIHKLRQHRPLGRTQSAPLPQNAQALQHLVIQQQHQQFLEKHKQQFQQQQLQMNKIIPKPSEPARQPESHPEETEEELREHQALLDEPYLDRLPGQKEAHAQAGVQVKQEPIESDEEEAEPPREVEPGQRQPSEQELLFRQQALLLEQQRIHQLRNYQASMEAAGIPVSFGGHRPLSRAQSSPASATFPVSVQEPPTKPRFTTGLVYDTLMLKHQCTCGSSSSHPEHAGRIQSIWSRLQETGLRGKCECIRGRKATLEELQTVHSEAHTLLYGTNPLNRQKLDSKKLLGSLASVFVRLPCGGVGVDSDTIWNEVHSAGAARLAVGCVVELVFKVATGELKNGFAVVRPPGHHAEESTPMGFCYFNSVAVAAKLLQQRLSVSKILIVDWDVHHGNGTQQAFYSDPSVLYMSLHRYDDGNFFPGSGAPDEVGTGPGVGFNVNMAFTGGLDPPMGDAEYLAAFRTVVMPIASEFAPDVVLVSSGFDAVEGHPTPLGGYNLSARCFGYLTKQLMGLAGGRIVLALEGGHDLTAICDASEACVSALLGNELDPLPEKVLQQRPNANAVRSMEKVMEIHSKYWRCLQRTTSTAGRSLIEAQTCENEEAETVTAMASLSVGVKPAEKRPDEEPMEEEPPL
T1 sequence (O15379 whole entry, the tested form may be a part): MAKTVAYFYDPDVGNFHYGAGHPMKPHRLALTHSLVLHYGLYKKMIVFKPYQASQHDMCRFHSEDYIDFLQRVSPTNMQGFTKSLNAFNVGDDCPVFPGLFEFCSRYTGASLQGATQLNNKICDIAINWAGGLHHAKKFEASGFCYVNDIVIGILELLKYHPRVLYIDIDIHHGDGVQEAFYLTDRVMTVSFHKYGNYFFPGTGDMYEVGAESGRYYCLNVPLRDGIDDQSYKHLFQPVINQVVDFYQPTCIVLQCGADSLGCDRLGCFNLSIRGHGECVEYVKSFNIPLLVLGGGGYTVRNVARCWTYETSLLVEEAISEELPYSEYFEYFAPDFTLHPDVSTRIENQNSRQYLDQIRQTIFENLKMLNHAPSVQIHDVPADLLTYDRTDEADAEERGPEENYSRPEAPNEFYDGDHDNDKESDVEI
T5 sequence (Q9UQL6 whole entry): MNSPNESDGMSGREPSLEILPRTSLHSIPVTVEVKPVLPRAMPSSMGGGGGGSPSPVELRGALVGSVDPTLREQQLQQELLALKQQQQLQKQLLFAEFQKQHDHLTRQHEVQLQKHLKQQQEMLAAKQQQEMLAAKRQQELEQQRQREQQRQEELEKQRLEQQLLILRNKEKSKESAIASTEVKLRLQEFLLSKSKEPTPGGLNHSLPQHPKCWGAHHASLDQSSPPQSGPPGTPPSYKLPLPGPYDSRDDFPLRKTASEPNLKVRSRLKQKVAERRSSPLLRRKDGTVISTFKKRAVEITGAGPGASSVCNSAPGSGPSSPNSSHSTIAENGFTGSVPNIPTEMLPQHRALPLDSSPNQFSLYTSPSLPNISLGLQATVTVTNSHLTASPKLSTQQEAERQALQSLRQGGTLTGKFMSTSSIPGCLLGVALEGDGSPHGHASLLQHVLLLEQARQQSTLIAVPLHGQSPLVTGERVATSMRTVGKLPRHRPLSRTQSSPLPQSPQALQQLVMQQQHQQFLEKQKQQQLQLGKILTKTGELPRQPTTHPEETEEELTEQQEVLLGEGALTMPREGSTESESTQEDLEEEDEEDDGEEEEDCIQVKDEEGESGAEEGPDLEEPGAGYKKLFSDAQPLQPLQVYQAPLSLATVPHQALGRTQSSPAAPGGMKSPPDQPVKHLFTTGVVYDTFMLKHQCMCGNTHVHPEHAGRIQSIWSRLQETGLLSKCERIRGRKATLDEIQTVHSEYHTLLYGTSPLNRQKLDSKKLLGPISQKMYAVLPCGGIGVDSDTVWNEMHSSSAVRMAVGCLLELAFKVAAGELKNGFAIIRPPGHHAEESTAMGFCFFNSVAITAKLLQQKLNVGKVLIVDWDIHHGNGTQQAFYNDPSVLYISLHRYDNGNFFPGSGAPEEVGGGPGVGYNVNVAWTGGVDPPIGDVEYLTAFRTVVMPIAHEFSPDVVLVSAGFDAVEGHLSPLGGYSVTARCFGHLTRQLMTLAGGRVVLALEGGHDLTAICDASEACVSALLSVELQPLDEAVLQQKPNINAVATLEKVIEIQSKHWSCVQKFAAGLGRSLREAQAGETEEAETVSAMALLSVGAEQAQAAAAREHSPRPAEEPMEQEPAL
T6 sequence (Q8WUI4 whole entry): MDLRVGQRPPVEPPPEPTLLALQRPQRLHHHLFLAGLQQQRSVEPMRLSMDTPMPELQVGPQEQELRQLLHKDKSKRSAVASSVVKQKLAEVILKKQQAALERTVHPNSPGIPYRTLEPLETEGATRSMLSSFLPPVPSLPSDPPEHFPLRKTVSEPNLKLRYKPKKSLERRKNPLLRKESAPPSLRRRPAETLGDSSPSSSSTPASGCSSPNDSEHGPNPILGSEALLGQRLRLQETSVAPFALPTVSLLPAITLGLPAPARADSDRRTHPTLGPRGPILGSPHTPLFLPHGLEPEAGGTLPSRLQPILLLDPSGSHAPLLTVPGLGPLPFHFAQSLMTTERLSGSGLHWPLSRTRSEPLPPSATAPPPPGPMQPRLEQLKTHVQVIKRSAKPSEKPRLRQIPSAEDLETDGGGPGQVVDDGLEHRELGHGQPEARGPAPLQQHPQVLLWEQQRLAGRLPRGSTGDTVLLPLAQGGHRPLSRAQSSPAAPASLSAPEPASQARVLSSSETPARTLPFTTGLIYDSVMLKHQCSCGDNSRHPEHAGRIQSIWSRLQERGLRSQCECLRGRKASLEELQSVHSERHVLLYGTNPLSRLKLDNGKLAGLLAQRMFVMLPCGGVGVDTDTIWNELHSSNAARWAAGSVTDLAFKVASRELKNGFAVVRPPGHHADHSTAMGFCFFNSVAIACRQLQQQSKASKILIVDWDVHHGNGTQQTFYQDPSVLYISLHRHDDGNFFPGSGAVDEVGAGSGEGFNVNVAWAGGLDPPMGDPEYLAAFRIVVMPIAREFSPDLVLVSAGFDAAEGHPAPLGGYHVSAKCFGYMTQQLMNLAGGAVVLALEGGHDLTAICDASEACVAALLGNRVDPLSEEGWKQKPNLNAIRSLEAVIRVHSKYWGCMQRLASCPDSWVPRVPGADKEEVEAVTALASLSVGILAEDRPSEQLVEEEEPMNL
Histone deacetylase 11, sequence (Q96DB2 whole entry, canonical isoform): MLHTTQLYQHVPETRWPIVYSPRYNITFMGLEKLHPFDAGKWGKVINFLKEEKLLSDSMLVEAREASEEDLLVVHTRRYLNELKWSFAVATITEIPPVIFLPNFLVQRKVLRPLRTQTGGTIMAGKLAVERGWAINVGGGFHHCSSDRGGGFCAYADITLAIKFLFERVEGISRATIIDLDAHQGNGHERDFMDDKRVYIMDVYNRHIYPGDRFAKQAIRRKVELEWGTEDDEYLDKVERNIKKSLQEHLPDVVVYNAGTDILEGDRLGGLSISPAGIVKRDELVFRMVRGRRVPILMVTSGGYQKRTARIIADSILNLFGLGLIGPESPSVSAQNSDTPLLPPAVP

CCCCN(Cc1ccc(C(=O)NO)cc1)C(=O)CCCCn1cc(COc2cccc(Cc3cnc(NC(=O)CSc4nc(C)cc(C)n4)s3)c2)nn1
IC50 (Histone deacetylase 3 [1]): 2500 nM

CC(C)NC(=O)[C@H]1CC[C@@H](n2/c(=N/C(=O)c3ccccc3)[nH]c3cc(/C=C/C(=O)NO)ccc32)CC1
IC50 [2]: 1030 nM | IC50 [3]: 16 nM | Activity (A549): 80%

O=C(NO)c1ccc(/C=N/NC(=O)c2cc(N3CCOCC3)nc(-c3cccc(O)c3)n2)cc1
IC50 (Histone deacetylase 1): > 3000 nM | IC50 (Histone deacetylase 4 [4]): > 3000 nM | IC50 (Histone deacetylase 8): 67.6 nM | IC50 (Histone deacetylase 11): > 3000 nM | IC50 [5]: 72.8 nM | IC50 [6]: 72.4 nM | IC50 [7]: 1300 nM

C[C@]12CC[C@H](OC(=O)CCCCCC(=O)NO)CC1=CCC1C2CC[C@]2(C)C(c3cccnc3)=CCC12 (some centres not stated)
IC50 [8]: 600 nM | IC50 (Histone deacetylase 8): > 10000 nM | IC50 [9]: 284 nM

C[C@H](c1nc2c(cnn2C2CCCC2)c(=O)[nH]1)N1CC(Oc2ncccn2)C1
IC50 [10]: 32 nM

CC(C)c1cc(C(=O)N(C)Cc2ccc(C(=O)NO)cc2)c(O)cc1O
IC50 [11]: 61 nM

CC12CC3CC(C)(C1)CC(NC(=O)/C=C/c1ccc(C(=O)NO)cc1)(C3)C2
IC50 (Histone deacetylase 3 [1]): 2210 nM | IC50 (Histone deacetylase 1): 2670 nM | IC50 (Histone deacetylase 4 [4]): > 10000 nM | IC50 (Histone deacetylase 8): 620 nM | IC50 (Histone deacetylase 2): 8000 nM | IC50 (Histone deacetylase 5 [12]): > 10000 nM | IC50 (Histone deacetylase 7 [13]): > 10000 nM | IC50 (Histone deacetylase 9): > 10000 nM | Ki [14]: 560 nM | inhibition [15]: 64.4%

O=C(CCCCCn1c(=O)c(-c2ccc(Cl)cc2Cl)cc2cnc(NC3CC3)nc21)NO
IC50 (Histone deacetylase 3 [1]): 177 nM | IC50 (Histone deacetylase 1): 233 nM | IC50 [8]: 38.2 nM | IC50 (Histone deacetylase 8): 190 nM | IC50 (Histone deacetylase 2): 157 nM | IC50 [16]: 13.6 nM | IC50 [17]: 193 nM | IC50 [18]: 441 nM

C[C@@H]1CN(Cc2ccc(C(=O)NO)cc2)C[C@H]1c1nc2c(cnn2C2CCOCC2)c(=O)[nH]1
IC50 (Histone deacetylase 1): 593 nM | IC50 [8]: 40 nM | IC50 (Histone deacetylase 2): 3530 nM | IC50 [10]: 107 nM | IC50 [19]: > 10000 nM

N#CC(C#N)=C1C=C(/C=C/c2ccc(O)c(NC(=O)CCCCCCC(=O)NO)c2)Oc2ccccc21
RBA [20]: 0.005% | RBA [21]: 0.25%

CC(C)(C)c1nc(-c2cccc(NS(=O)(=O)c3c(F)cccc3F)c2F)c(-c2ccnc(NCCCCCCC(=O)NO)n2)s1
IC50 [22]: 4 nM | IC50 (Histone deacetylase 3 [23]): 930 nM | IC50 (Histone deacetylase 4 [24]): > 100000 nM | IC50 (Histone deacetylase 5 [25]): > 52800 nM | IC50 [26]: 50 nM | IC50 (Histone deacetylase 7 [27]): 3000 nM
